# Legend:
# [1] = target: T1, CMK (cytidylate kinase) (Escherichia coli, UniProt P0A6I0); test: coupled PK/LDH NADH fluorescence progress curves over CMP serial dilution; format: biochemical
# T1 sequence (P0A6I0 1-227): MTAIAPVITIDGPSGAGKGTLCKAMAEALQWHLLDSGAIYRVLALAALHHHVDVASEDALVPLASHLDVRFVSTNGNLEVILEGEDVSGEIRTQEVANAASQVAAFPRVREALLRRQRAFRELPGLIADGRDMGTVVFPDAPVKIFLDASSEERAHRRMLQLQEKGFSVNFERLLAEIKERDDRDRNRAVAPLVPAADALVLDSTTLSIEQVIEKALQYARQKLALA
# [2] = target: T2, FUT1 (Homo sapiens, UniProt P19526); test: donor at fixed saturating concentration in UGC continuous coupled assay (NDK/PK/LDH); format: biochemical
# T2 construct: pGEn2 construct expressed in HEK293F; tag removed with TEV protease
# T2 sequence (P19526 1-365): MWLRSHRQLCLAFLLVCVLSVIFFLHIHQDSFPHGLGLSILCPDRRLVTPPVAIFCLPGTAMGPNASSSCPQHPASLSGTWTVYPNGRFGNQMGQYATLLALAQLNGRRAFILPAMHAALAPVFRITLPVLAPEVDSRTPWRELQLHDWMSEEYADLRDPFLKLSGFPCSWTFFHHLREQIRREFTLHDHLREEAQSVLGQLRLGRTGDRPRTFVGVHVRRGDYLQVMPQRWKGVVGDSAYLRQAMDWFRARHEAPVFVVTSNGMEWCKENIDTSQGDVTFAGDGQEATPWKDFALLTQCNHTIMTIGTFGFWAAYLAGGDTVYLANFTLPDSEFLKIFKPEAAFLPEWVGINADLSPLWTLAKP
# [3] = target: T3, C1GALT1 (Homo sapiens, UniProt Q9NS00); test: biochemical; design: UGC coupled continuous assay, NADH fluorescence depletion, 30 min enzyme-inhibitor preincubation, 37 °C; conditions: acceptor 2x Km, donor 0.5x Km; rate at 5 min; extrapolated; read-out: Log IC50 (M) C1GALT1 (converted)
# T3 construct: pGEn2 construct expressed in HEK293F (coexpressed with chaperone C1GALT1C1); tag removed with TEV protease
# T3 sequence (Q9NS00 whole entry): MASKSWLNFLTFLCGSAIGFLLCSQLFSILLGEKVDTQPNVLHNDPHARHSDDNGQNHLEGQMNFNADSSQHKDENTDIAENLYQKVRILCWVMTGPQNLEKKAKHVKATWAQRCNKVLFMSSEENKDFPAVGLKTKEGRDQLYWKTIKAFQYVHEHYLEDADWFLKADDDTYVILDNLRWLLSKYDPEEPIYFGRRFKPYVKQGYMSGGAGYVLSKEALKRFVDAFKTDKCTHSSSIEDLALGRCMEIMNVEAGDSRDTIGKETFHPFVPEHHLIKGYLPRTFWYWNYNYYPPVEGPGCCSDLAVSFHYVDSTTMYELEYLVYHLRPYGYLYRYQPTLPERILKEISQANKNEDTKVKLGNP
# Method: (§1) Soyasaponin 1 stock solution was prepared at 1.25 mM in 2% (v/v) Triton X-100 and 10% (v/v) DMSO. Inhibition assays were performed following a method similar to that used in the kinetics study. The master mixtures included all of the components except for the inhibitor and the enzyme. A 2-fold serial dilution from the inhibitor’s stock solution was prepared in a blank solution containing 2 and 10% (v/v) Triton X-100 and DMSO, respectively. The enzyme and the inhibitor were mixed, distributed to the wells, and preincubated for 30 min at 37 °C. A 10 min incubation period was also carried out at 37 °C for the master mixture, and the reaction was initiated by adding the master mixture to the wells. […] The effect of the activity percentage was calculated at each concentration of the inhibitor as follows [drawing 1] where SI, S100, S0 are the absolute values of the slopes from the progress curves of the reaction with inhibitor, […] respectively. IC50 and pIC50 (−log IC50 in molar concentration) values were calculated as depicted in Tables S3 and S4 (Supporting Information). Rates for the comparative dose response were calculated for each enzyme at the last time point where the uninhibited reaction maintained its linearity. […] Time and dose dependent inhibition was measured at varying concentrations of Soyasaponin 1. […]
# [4] = target: T4, ST3GAL1 (Homo sapiens, UniProt Q11201); test: biochemical; design: UGC coupled continuous assay, NADH fluorescence depletion, 30 min enzyme-inhibitor preincubation, 37 °C; conditions: acceptor and donor at Km; 20 min; read-out: Log IC50 (M) 20 Minutes (converted)
# T4 construct: pGEn2 construct expressed in HEK293F; tag removed with TEV protease
# T4 sequence (Q11201 1-340): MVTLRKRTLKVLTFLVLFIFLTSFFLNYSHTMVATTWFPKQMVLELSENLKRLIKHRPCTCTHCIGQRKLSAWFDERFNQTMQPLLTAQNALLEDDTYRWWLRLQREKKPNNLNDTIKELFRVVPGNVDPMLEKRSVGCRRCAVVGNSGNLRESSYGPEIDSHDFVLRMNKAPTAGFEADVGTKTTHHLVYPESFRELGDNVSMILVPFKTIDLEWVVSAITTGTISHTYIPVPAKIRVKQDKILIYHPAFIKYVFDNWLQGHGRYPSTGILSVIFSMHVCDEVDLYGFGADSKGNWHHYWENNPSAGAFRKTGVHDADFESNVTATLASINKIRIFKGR
# Method: as §1
# [5] = target: T2, FUT1; test: UGC continuous coupled NADH fluorescence assay, […] min enzyme-inhibitor preincubation, dose response; format: biochemical
# [6] = target: T4, ST3GAL1; test: as above; format: biochemical
# [7] = target: T2, FUT1; test: Michaelis-Menten kinetics, UGC continuous coupled assay (NDK/PK/LDH); format: biochemical
# [8] = target: T4, ST3GAL1; test: Michaelis-Menten kinetics, UGC continuous coupled assay (CMK/NDK/PK/LDH); format: biochemical
smiles,measurement,setting,value
Nc1ccn([C@@H]2O[C@H](COP(=O)(O)O)[C@@H](O)[C@H]2O)c(=O)n1 [CMP],coupled PK/LDH NADH fluorescence progress curves over CMP serial dilution,[1],the initial instant phosphorylation of CMP to CDP via CMK followed by a slower phosphorylation of CDP via PK
C[C@@H]1O[C@H](OP(=O)(O)OP(=O)(O)OC[C@H]2O[C@@H](n3cnc4c(=O)[nH]c(N)nc43)[C@H](O)[C@@H]2O)[C@@H](O)[C@H](O)[C@@H]1O [GDP-Fuc],donor at fixed saturating concentration in UGC continuous coupled assay (NDK/PK/),[2],Kinetics parameters for FUT1 were calculated with a saturation concentration of the donor GDP-Fuc and variable concentrations of the acceptors
C[C@@H]1O[C@@H](O[C@H]2[C@H](O[C@H]3[C@H](O[C@H]4CC[C@@]5(C)[C@@H](CC[C@]6(C)[C@@H]5CC=C5[C@@H]7CC(C)(C)C[C@@H](O)[C@]7(C)CC[C@]56C)[C@@]4(C)CO)O[C@H](C(=O)O)[C@@H](O)[C@@H]3O)O[C@H](CO)[C@H](O)[C@@H]2O)[C@H](O)[C@H](O)[C@H]1O [Soyasaponin1],IC50,[3],0.000367 M
same,IC50,[4],5.87e-05 M
same,IC50,[5],52 µM
same,IC50,[6],31 µM
CC(=O)N[C@H]1[C@@H](OCc2ccccc2)O[C@H](CO)[C@H](O)[C@@H]1O[C@@H]1O[C@H](CO)[C@H](O)[C@H](O)[C@H]1O [T-Bn],"Michaelis-Menten kinetics, UGC continuous coupled assay (NDK/PK/LDH)",[7],152 min^–1 (kcat)
CC(=O)N[C@H]1C(O)O[C@H](CO)[C@H](O)[C@@H]1O[C@@H]1O[C@H](CO)[C@H](O)[C@H](O)[C@H]1O (stereo partly drawn) [galacto-N-biose],"Michaelis-Menten kinetics, UGC continuous coupled assay (CMK/NDK/PK/LDH)",[8],195 min^–1 (kcat)
CC(=O)N[C@H]1C(O)O[C@H](CO)[C@@H](O)[C@@H]1O[C@@H]1O[C@H](CO)[C@H](O)[C@H](O)[C@H]1O (stereo partly drawn) [lacto-N-biose],"Michaelis-Menten kinetics, UGC continuous coupled assay (NDK/PK/LDH)",[7],357 min^–1 (kcat)
